# Values of other authors as cited in patent publication US20170247647A1, “FLAVOR NANOEMULSIONS AND METHODS OF PREPARING THE SAME” (International Flavors & Fragrances Inc., priority 2014, published 2017).
# Conditions: not given
row,Molecule,"Water Solubility (g/L, approx.)"
1,CSC [dimethyl sulfide],insoluble
2,CCOC(C)=O [ethyl acetate],~90 g/L
3,CCCC(=O)OCC [ethyl butyrate],~6 g/L
4,CCOC(=O)CC [ethyl propionate],~14 g/L
5,CCCC(=O)OC [methyl butyrate],~15 g/L

# Conditions: commercial surfactant
row,Molecule,HLB
1,Tween™ 20,16.7
2,Tween™ 60,14.9
3,Tween™ 80,15
